The nature of this series: Hepatic Stability Assay (in vitro half-life method). Type of series: in vitro ADME. More on the design: dose or concentration left out as unconfirmed. To be noted: pooled cryopreserved hepatocytes, 37° C., 1×10^6 cells/mL, 0-6 hours, LC-MS/MS, 39.5 hours is the maximum detectable half life, read-out: t½ (converted). On the procedure:
Hepatic Stability Assay The metabolic stability of certain compounds disclosed herein was assessed in vitro in pooled cryopreserved hepatocytes using the in vitro half-life method. Incubations were at 37° C. and final concentrations in the incubations were 1×10^6 cells/mL and […] test concentration of the compound. Aliquots were sequentially removed after 0, 1, 3 and 6 hours and analyzed by LC-MS/MS. In vitro half-life was determined by measuring the rate of disappearance of the compound and then scaled to predicted hepatic clearance using the well-stirred model. […] As such, compounds having a value of 39.5 may have a half live that exceeds 39.5 hours.

We go through 19 compounds from US10328053B2 (Gilead Sciences, Inc., priority 2016, dated 2019).

Turning to `Cc1nnc(C2(NC(=O)C(=O)c3c(C)c(C(=O)Nc4cc(F)c(F)c(F)c4)n4c3CCC4)CC2)o1` [Example 65, 6-methyl-7-(2-((1-(5-methyl-1,3,4-oxadiazol-2-yl)cyclopropyl)amino)-2-oxoacetyl)-N-(3,4,5-trifluorophenyl)-2,3-dihydro-1H-pyrrolizine-5-carboxamide], the half-life was 14.8 h. As for `Cc1c(C(=O)C(=O)N[C@H](C)C(F)(F)F)c2n(c1C(=O)Nc1ccc(F)c(Cl)c1)C(C)(C)CC2` [Example 17, (R)—N-(3-chloro-4-fluorophenyl)-3,3,6-trimethyl-7-(2-oxo-2-((1,1,1-trifluoropropan-2-yl)amino)acetyl)-2,3-dihydro-1H-pyrrolizine-5-carboxamide], the half-life is 0.6 h. With `Cc1c(C(=O)C(=O)NC2(C(N)=O)CC(F)(F)C2)c2n(c1C(=O)Nc1ccc(F)c(Cl)c1)CCC2` [Example 120, 7-(2-((1-carbamoyl-3,3-difluorocyclobutyl)amino)-2-oxoacetyl)-N-(3-chloro-4-fluorophenyl)-6-methyl-2,3-dihydro-1H-pyrrolizine-5-carboxamide] the figure was 13.5 h; with `Cc1c(C(=O)C(=O)NC2(c3cnn[nH]3)CC2)c2n(c1C(=O)Nc1ccc(F)cc1)[C@@H]1C[C@@H]1C2` [Example 99, (1aR,6aR)-5-(2-((1-(1H-1,2,3-triazol-5-yl)cyclopropyl)amino)-2-oxoacetyl)-N-(4-fluorophenyl)-4-methyl-1,1a,6,6a-tetrahydrocyclopropa[b]pyrrolizine-3-carboxamide], 9.6 h.

As to `Cc1c(C(=O)C(=O)NC2(C(F)(F)F)COC2)c2n(c1C(=O)Nc1ccnc(C(F)F)c1F)C[C@H](F)C2` [Example 150, (R)—N-(2-(difluoromethyl)-3-fluoropyridin-4-yl)-2-fluoro-6-methyl-7-(2-oxo-2-((3-(trifluoromethyl)oxetan-3-yl)amino)acetyl)-2,3-dihydro-1H-pyrrolizine-5-carboxamide], the half-life is 16.6 h. With `Cc1c(C(=O)C(=O)NC2(c3c[nH]nn3)CC(F)(F)C2)c2n(c1C(=O)Nc1ccnc(C(F)F)c1)CCC2` [Example 55, 7-(2-((3,3-difluoro-1-(1H-1,2,3-triazol-4-yl)cyclobutyl)amino)-2-oxoacetyl)-N-(2-(difluoromethyl)pyridin-4-yl)-6-methyl-2,3-dihydro-1H-pyrrolizine-5-carboxamide] the figure was 15.5 h.

Regarding `Cc1c(C(=O)C(=O)NC2(c3c[nH]nn3)CC2)c2n(c1C(=O)Nc1cc(F)cc(F)c1)CCC2` [Example 76, 7-(2-((1-(1H-1,2,3-triazol-4-yl)cyclopropyl)amino)-2-oxoacetyl)-N-(3,5-difluorophenyl)-6-methyl-2,3-dihydro-1H-pyrrolizine-5-carboxamide], the half-life is 19.5 h. With `Cc1c(C(=O)C(=O)NC2(C#N)CC(F)(F)C2)c2n(c1C(=O)Nc1ccc(F)c(F)c1)CCC2` [Example 131, 7-(2-((1-cyano-3,3-difluorocyclobutyl)amino)-2-oxoacetyl)-N-(3,4-difluorophenyl)-6-methyl-2,3-dihydro-1H-pyrrolizine-5-carboxamide] the figure was 7.6 h; with `Cc1c(C(=O)C(=O)NC2(c3c[nH]nn3)CC2)c2n(c1C(=O)Nc1cccc(C(F)F)c1)CCC2` [Example 103, 7-(2-((1-(1H-1,2,3-triazol-4-yl)cyclopropyl)amino)-2-oxoacetyl)-N-(3-(difluoromethyl)phenyl)-6-methyl-2,3-dihydro-1H-pyrrolizine-5-carboxamide], 8.5 h; with `Cc1c(C(=O)C(=O)NC2(C(=O)N(C)C)CC(F)(F)C2)c2n(c1C(=O)Nc1ccc(F)c(F)c1)CCC2` [Example 125, N-(3,4-difluorophenyl)-7-(2-((1-(dimethylcarbamoyl)-3,3-difluorocyclobutyl)amino)-2-oxoacetyl)-6-methyl-2,3-dihydro-1H-pyrrolizine-5-carboxamide], 1.9 h. `Cc1c(C(=O)C(=O)N[C@]2(C)C[S@@+]([O-])C2)c2n(c1C(=O)Nc1ccc(F)c(F)c1)CCC2` [Example 151, N-(3,4-difluorophenyl)-6-methyl-7-(2-(((1r,3r)-3-methyl-1-oxidothietan-3-yl)amino)-2-oxoacetyl)-2,3-dihydro-1H-pyrrolizine-5-carboxamide]: the half-life is 5 h. As for `Cc1c(C(=O)C(=O)NC2(c3c[nH]nn3)CC2)c2n(c1C(=O)Nc1cc(Cl)c(F)cc1F)CCC2` [Example 91, 7-(2-((1-(1H-1,2,3-triazol-4-yl)cyclopropyl)amino)-2-oxoacetyl)-N-(5-chloro-2,4-difluorophenyl)-6-methyl-2,3-dihydro-1H-pyrrolizine-5-carboxamide], the half-life is 19.6 h.

As to `Cc1c(C(=O)C(=O)NC2(CO)CC(F)(F)C2)c2n(c1C(=O)Nc1ccc(F)c(F)c1)CCC2` [Example 118, 7-(2-((3,3-difluoro-1-(hydroxymethyl)cyclobutyl)amino)-2-oxoacetyl)-N-(3,4-difluorophenyl)-6-methyl-2,3-dihydro-1H-pyrrolizine-5-carboxamide], the half-life was 15.2 h. With `Cc1c(C(=O)C(=O)N[C@](C)(CO)C(F)(F)F)c2n(c1C(=O)Nc1ccc(F)c(F)c1)CCC2` [Example 133, (R)—N-(3,4-difluorophenyl)-6-methyl-7-(2-oxo-2-((1,1,1-trifluoro-3-hydroxy-2-methylpropan-2-yl)amino)acetyl)-2,3-dihydro-1H-pyrrolizine-5-carboxamide] the figure was 12.5 h. With `Cc1c(C(=O)C(=O)NC2(CO)CC(F)(F)C2)c2n(c1C(=O)Nc1ccc(F)c(Cl)c1)CCC2` [Example 117, N-(3-chloro-4-fluorophenyl)-7-(2-((3,3-difluoro-1-(hydroxymethyl)cyclobutyl)amino)-2-oxoacetyl)-6-methyl-2,3-dihydro-1H-pyrrolizine-5-carboxamide] the figure was 10.5 h. For the compound `CNC(=O)C1(NC(=O)C(=O)c2c(C)c(C(=O)Nc3ccc(F)cc3)n3c2C[C@H]2C[C@H]23)CC(F)(F)C1` [Example 95, (1aR,6aR)-5-(2-((3,3-difluoro-1-(methylcarbamoyl)cyclobutyl)amino)-2-oxoacetyl)-N-(4-fluorophenyl)-4-methyl-1,1a,6,6a-tetrahydrocyclopropa[b]pyrrolizine-3-carboxamide], the half-life is 28.8 h. The result for `Cc1c(C(=O)C(=O)NC2(C#N)CC(F)(F)C2)c2n(c1C(=O)Nc1ccc(F)c(Cl)c1)CCC2` [Example 130, N-(3-chloro-4-fluorophenyl)-7-(2-((1-cyano-3,3-difluorocyclobutyl)amino)-2-oxoacetyl)-6-methyl-2,3-dihydro-1H-pyrrolizine-5-carboxamide] reads 6.6 h.

In the case of `Cc1c(C(=O)C(=O)NC2(C)CS(=O)(=O)C2)c2n(c1C(=O)Nc1cc(F)c(F)c(F)c1)[C@@H]1C[C@@H]1C2` [Example 73, (1aR,6aR)-4-methyl-5-(2-((3-methyl-1,1-dioxidothietan-3-yl)amino)-2-oxoacetyl)-N-(3,4,5-trifluorophenyl)-1,1a,6,6a-tetrahydrocyclopropa[b]pyrrolizine-3-carboxamide], the half-life is 16.1 h. With `Cc1c(C(=O)C(=O)NC2(C(=O)N(C)C)CC(F)(F)C2)c2n(c1C(=O)Nc1ccc(F)c(Cl)c1)CCC2` [Example 124, N-(3-chloro-4-fluorophenyl)-7-(2-((1-(dimethylcarbamoyl)-3,3-difluorocyclobutyl)amino)-2-oxoacetyl)-6-methyl-2,3-dihydro-1H-pyrrolizine-5-carboxamide] the figure was 1 h.
